Assay results taken from patent publication US20070172422A1, “Exponential pattern recognition based cellular targeting compositions, methods and anticancer applications” (priority 2001, published 2007).
Values belong to the molecule of their own block, whether it stands above or below them.

What was measured:
[1] = times more potent than doxorubicin; cited from earlier work
[2] = test system: cells including adriamycin resistant tumor lines; conditions: cited from earlier work
PSMA = PSMA (Homo sapiens, UniProt Q04609); assay: inhibition of the enzymatic activity of PSMA; type: biochemical
PSMA, sequence (Q04609 whole entry, species assumed): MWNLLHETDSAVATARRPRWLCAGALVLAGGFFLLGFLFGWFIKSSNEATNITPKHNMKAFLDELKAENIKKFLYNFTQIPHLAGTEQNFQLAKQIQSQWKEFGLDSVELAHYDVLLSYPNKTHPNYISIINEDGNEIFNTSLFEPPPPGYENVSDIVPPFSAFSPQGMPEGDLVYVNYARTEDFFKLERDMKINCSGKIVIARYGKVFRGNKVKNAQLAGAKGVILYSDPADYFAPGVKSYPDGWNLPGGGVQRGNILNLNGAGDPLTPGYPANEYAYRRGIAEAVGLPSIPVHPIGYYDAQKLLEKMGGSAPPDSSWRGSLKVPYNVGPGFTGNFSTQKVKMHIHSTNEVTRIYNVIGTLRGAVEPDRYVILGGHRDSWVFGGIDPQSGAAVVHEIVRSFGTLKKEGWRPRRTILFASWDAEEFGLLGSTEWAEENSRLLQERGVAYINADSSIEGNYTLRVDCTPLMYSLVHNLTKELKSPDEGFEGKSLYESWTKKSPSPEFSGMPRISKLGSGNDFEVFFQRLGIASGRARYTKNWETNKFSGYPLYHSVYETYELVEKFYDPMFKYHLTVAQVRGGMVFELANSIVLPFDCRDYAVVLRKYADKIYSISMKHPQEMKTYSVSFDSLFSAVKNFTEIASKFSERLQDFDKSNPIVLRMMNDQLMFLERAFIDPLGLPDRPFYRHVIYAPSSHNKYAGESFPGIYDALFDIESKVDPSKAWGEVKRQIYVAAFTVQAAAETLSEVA
Protocol: The ability of Compound 8 to inhibit the enzymatic activity of PSMA (and consequently to bind to the enzyme) was evaluated using the method described previously in Ser. No. 09/712,465 Nov. 15, 2000 Glazier, Arnold. “Selective Cellular Targeting: Multifunctional Delivery Vehicles, Multifunctional Prodrugs, Use as Neoplastic Drugs. The IC50 for Compound 8 was 8 nanomolar.

SMILES: COc1cccc2c1C(=O)c1c(O)c3c(c(O)c1C2=O)C[C@@](O)(C(=O)CO)C[C@@H]3O[C@H]1C[C@H](N2C=CCC2)[C@H](O)[C@H](C)O1 [2-pyrrolinodoxorubicin]
potency relative to doxorubicin [1]: 500-1000 times

SMILES: CO[C@@H]1[C@H](O)C[C@@H](O[C@@H]2C[C@H](Oc3cc4cc5c(c(O)c4c(O)c3C)C(=O)[C@@H](O[C@H]3C[C@@H](O[C@H]4C[C@@H](O[C@H]6C[C@](C)(O)[C@@H](OC(C)=O)[C@H](C)O6)[C@H](O)[C@@H](C)O4)[C@H](O)[C@@H](C)O3)[C@H]([C@H](OC)C(=O)[C@@H](O)[C@@H](C)O)C5)O[C@H](C)[C@@H]2OC(C)=O)O[C@@H]1C [Chromomycin A3]
concentrations at which cytotoxic [2]: subnanomolar concentrations

IC50 (PSMA): 8 nM
SMILES: COc1ccc(C(=O)NCCOCCOCCOCCNC(=O)CCC(NC(=O)NC(CCC(=O)O)C(=O)O)C(=O)O)cc1 (stereo not drawn) [Compound 8]
